Reference: ChEMBL document CHEMBL3856212, “Synthesis, anti-proliferative and genotoxicity studies of 6-chloro-5-(2-substituted-ethyl)-1,3-dihydro-2H-indol-2-ones and 6-chloro-5-(2-chloroethyl)-3-(alkyl/ary-2-ylidene)indolin-2-ones” (Eur J Med Chem, 2016)

Legend:
[1] = Cytotoxicity against human HL-60(TB) cells assessed as growth inhibition after 48 hrs by SRB assay; assay type: functional; settings: HL-60, 48 h
[2] = Cytotoxicity against human MOLT4 cells assessed as growth inhibition after 48 hrs by SRB assay; assay type: functional; settings: MOLT-4, 48 h
[3] = Cytotoxicity against human SR cells assessed as growth inhibition after 48 hrs by SRB assay; assay type: functional
[4] = Cytotoxicity against human EKVX cells assessed as growth inhibition after 48 hrs by SRB assay; assay type: functional
[5] = Cytotoxicity against human HOP62 cells assessed as growth inhibition after 48 hrs by SRB assay; assay type: functional; settings: HOP-62, 48 h
[6] = Cytotoxicity against human NCI-H23 cells assessed as growth inhibition after 48 hrs by SRB assay; assay type: functional; settings: NCI-H23, 48 h
[7] = Cytotoxicity against human HCC2998 cells assessed as growth inhibition after 48 hrs by SRB assay; assay type: functional; settings: HCC 2998, 48 h
[8] = Cytotoxicity against human HCT15 cells assessed as growth inhibition after 48 hrs by SRB assay; assay type: functional; settings: HCT-15, 48 h
[9] = Cytotoxicity against human SF268 cells assessed as growth inhibition after 48 hrs by SRB assay; assay type: functional; settings: SF-268, 48 h
[10] = Cytotoxicity against human SF295 cells assessed as growth inhibition after 48 hrs by SRB assay; assay type: functional; settings: SF-295, 48 h
[11] = Cytotoxicity against human OVCAR8 cells assessed as growth inhibition after 48 hrs by SRB assay; assay type: functional; settings: OVCAR-8, 48 h
[12] = Cytotoxicity against human ACHN cells assessed as growth inhibition after 48 hrs by SRB assay; assay type: functional
[13] = Cytotoxicity against human Caki1 cells assessed as growth inhibition after 48 hrs by SRB assay; assay type: functional; settings: CAKI-1, 48 h
[14] = Cytotoxicity against human SN12C cells assessed as growth inhibition after 48 hrs by SRB assay; assay type: functional
[15] = Cytotoxicity against human Hs 578T cells assessed as growth inhibition after 48 hrs by SRB assay; assay type: functional
[16] = Cytotoxicity against human T47D cells assessed as growth inhibition after 48 hrs by SRB assay; assay type: functional
[17] = Cytotoxicity against human NCI-H23 cells assessed as assessed as growth inhibition at 10^-5 M after 48 hrs by SRB assay relative to control; assay type: functional; settings: NCI-H23, 48 h, read-out: GI
[18] = Cytotoxicity against human HCC2998 cells assessed as assessed as growth inhibition at 10^-5 M after 48 hrs by SRB assay relative to control; assay type: functional; settings: HCC 2998, 48 h, read-out: GI
[19] = Cytotoxicity against human KM12 cells assessed as assessed as growth inhibition at 10^-5 M after 48 hrs by SRB assay relative to control; assay type: functional; settings: KM12, 48 h, read-out: GI
[20] = Cytotoxicity against human SF268 cells assessed as assessed as growth inhibition at 10^-5 M after 48 hrs by SRB assay relative to control; assay type: functional; settings: SF-268, 48 h, read-out: GI
[21] = Cytotoxicity against human SF295 cells assessed as assessed as growth inhibition at 10^-5 M after 48 hrs by SRB assay relative to control; assay type: functional; settings: SF-295, 48 h, read-out: GI
[22] = Cytotoxicity against human SNB75 cells assessed as assessed as growth inhibition at 10^-5 M after 48 hrs by SRB assay relative to control; assay type: functional; settings: SNB-75, 48 h, read-out: GI
[23] = Cytotoxicity against human M14 cells assessed as assessed as growth inhibition at 10^-5 M after 48 hrs by SRB assay relative to control; assay type: functional; settings: M14, 48 h, read-out: GI
[24] = Cytotoxicity against human MDA-MB-435 cells assessed as assessed as growth inhibition at 10^-5 M after 48 hrs by SRB assay relative to control; assay type: functional; settings: MDA-MB-435, 48 h, read-out: GI
[25] = Cytotoxicity against human SK-MEL-2 cells assessed as assessed as growth inhibition at 10^-5 M after 48 hrs by SRB assay relative to control; assay type: functional; settings: SK-MEL-2, 48 h, read-out: GI
[26] = Cytotoxicity against human UACC257 cells assessed as assessed as growth inhibition at 10^-5 M after 48 hrs by SRB assay relative to control; assay type: functional; settings: UACC-257, 48 h, read-out: GI
[27] = Cytotoxicity against human OVCAR3 cells assessed as assessed as growth inhibition at 10^-5 M after 48 hrs by SRB assay relative to control; assay type: functional; settings: OVCAR-3, 48 h, read-out: GI
[28] = Cytotoxicity against human SKOV3 cells assessed as assessed as growth inhibition at 10^-5 M after 48 hrs by SRB assay relative to control; assay type: functional; settings: SK-OV-3, 48 h, read-out: GI
[29] = Cytotoxicity against human SN12C cells assessed as assessed as growth inhibition at 10^-5 M after 48 hrs by SRB assay relative to control; assay type: functional; settings: read-out: GI
[30] = Cytotoxicity against human PC3 cells assessed as assessed as growth inhibition at 10^-5 M after 48 hrs by SRB assay relative to control; assay type: functional; settings: PC-3, 48 h, read-out: GI
[31] = Cytotoxicity against human MDA-MB-231 cells assessed as assessed as growth inhibition at 10^-5 M after 48 hrs by SRB assay relative to control; assay type: functional; settings: MDA-MB-231, 48 h, read-out: GI
[32] = species on record: Mus musculus; experiment: Genotoxicity in mouse EAC cells at 125 uM after 24 hrs by micronucleus assay (reference value: 3.5 +/- 0.30%); assay type: toxicity, cell-based; settings: ehrlich
[33] = Induction of apoptosis in mouse EAC cells at 125 uM after 24 hrs by acridine orange dye-based fluorescence microscopy (reference value: 0.66 +/- 0.33%); assay type: cell-based; settings: ehrlich
[34] = Induction of apoptosis in mouse EAC cells at 375 uM after 24 hrs by acridine orange dye-based fluorescence microscopy (reference value: 0.66 +/- 0.33%); assay type: cell-based; settings: ehrlich
[35] = read-out: LD50 (the source's name)

SMILES: O=C1Cc2cc(CCn3cncn3)c(Cl)cc2N1
- GI50 [1]: 1000 nM
- TGI [1]: > 1000 nM
- CC50 [1, 35]: > 1000 nM
- GI50 [2]: 1000 nM
- TGI [2]: > 1000 nM
- CC50 [2, 35]: > 1000 nM
- GI50 [3]: 1000 nM
- TGI [3]: > 1000 nM
- CC50 [3, 35]: > 1000 nM
- GI50 [4]: 8250 nM
- TGI [4]: > 1000 nM
- CC50 [4, 35]: > 1000 nM
- GI50 [5]: 2990 nM
- TGI [5]: > 1000 nM
- CC50 [5, 35]: > 1000 nM
- GI50 [6]: 1000 nM
- TGI [6]: > 1000 nM
- CC50 [6, 35]: > 1000 nM
- GI50 [7]: 1000 nM
- TGI [7]: > 1000 nM
- CC50 [7, 35]: > 1000 nM
- GI50 [8]: 9590 nM
- TGI [8]: > 1000 nM
- CC50 [8, 35]: > 1000 nM
- GI50 [9]: 5960 nM
- TGI [9]: > 1000 nM
- CC50 [9, 35]: > 1000 nM
- GI50 [10]: 3710 nM
- TGI [10]: > 1000 nM
- CC50 [10, 35]: > 1000 nM
- GI50 [11]: 6940 nM
- TGI [11]: > 1000 nM
- CC50 [11, 35]: > 1000 nM
- GI50 [12]: 1000 nM
- TGI [12]: > 1000 nM
- CC50 [12, 35]: > 1000 nM
- GI50 [13]: 8350 nM
- TGI [13]: > 1000 nM
- CC50 [13, 35]: > 1000 nM
- GI50 [14]: 1000 nM
- TGI [14]: > 1000 nM
- CC50 [14, 35]: > 1000 nM
- GI50 [15]: 7200 nM
- TGI [15]: > 1000 nM
- CC50 [15, 35]: > 1000 nM
- GI50 [16]: 1000 nM
- TGI [16]: > 1000 nM
- CC50 [16, 35]: > 1000 nM
- inhibition of growth at 10 µM [17]: 75.9%
- inhibition of growth at 10 µM [18]: 24.9%
- inhibition of growth at 10 µM [19]: 64%
- inhibition of growth at 10 µM [20]: -10.2%
- inhibition of growth at 10 µM [21]: 30.7%
- inhibition of growth at 10 µM [22]: 36.5%
- inhibition of growth at 10 µM [23]: 76%
- inhibition of growth at 10 µM [24]: 65.6%
- inhibition of growth at 10 µM [25]: 28.7%
- inhibition of growth at 10 µM [26]: 48.3%
- inhibition of growth at 10 µM [27]: 28.3%
- inhibition of growth at 10 µM [28]: 20.7%
- inhibition of growth at 10 µM [29]: 44.2%
- inhibition of growth at 10 µM [30]: 13.6%
- inhibition of growth at 10 µM [31]: 44%
- Activity [32]: 3.27%
- Activity [33]: 0.6%
- Activity [34]: 0.9%
